Test system: outwardly rectifying whole-cell currents of C. elegans body wall muscles
Test: Whole-cell patch clamp recordings from cultured myo-3::GFP-expressing body wall muscle cells
Type: cell-based
Settings: 20 mM TEA, 3 mM 4-AP
Method: FIGS. 3A-3C—Whole-cell recordings from C. elegans body wall muscles. […] Holding potential =−80 mV. […] Values are means±S.E. (n=8). […] Steady-state currents in the presence and absence of the drugs were measured at +80 mV. Drug effects were reversible. Values are means±S.E. (n=3-5).
Electrophysiology. Cells are patch clamped using either the conventional whole-cell mode or perforated patch method. Initially, whole-cell measurements are performed using “physiological” pipette and bath solutions. The composition of C. elegans extracellular and intracellular fluids is currently unknown. Ascaris bath Ringer's (Richmond & Jorgenson, 1999) and conventional high K^+, low Na^+ and Cl^− pipette solutions are used. Standard voltage clamp protocols are used to assess the voltage-dependence of channels responsible for whole-cell currents.
For these experiments, the inventors mimicked the experimental protocol and bath and pipette solutions used recently for in vivo patch clamp studies of C. elegans body wall muscles (Richmond et al., 1999). When cultured body muscles were patch clamped with a pipette solution containing 120 mM KCl (Richmond et al., 1999), slowly inactivating, strongly outwardly rectifying currents were observed (FIG. 3). These currents were inhibited 40% by 20 mM TEA and 85% by 20 mM TEA plus 3 mM 4-aminopyridine (4-AP). […]

## CC[N+](CC)(CC)CC [TEA]
  reversibility of drug effects on currents: reversible
Bath addition, steady-state currents at +80 mV, pipette 120 mM KCl
  inhibition of whole-cell currents: 40%
